According to ChEMBL document CHEMBL1201862, “PubChem BioAssay data set” (2004):
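Grown in 96-well plates, cells were treated for 48 hours with each compound at five concentrations. Insufficient inhibition: endpoint recorded as highest concentration tested. GI50 = concentration required for 50% inhibition of growth.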 Active and inactive are the calls of the source. No stated cut-off is given here; in the data, active = GI50 up to about 1.1 µM and inactive = higher.

Columns and labels:
Test in all cases: NCI-60 cell line screen, 48 h
TK-10 = tested on: TK-10
SF-295 = tested on: SF-295
HCT-116 = tested on: HCT-116
MOLT-4 = tested on: MOLT-4
HT-29 = tested on: HT-29
OVCAR-8 = tested on: OVCAR-8
PC-3 = tested on: PC-3
A549 = tested on: A549
UACC-257 = tested on: UACC-257
NCI-H522 = tested on: NCI-H522
COLO 205 = tested on: COLO 205
T47D = tested on: T47D
SNB-75 = tested on: SNB-75
CAKI-1 = tested on: CAKI-1
Hs-578T = tested on: Hs-578T
MDA-N = tested on: MDA-N
M14 = tested on: M14
SW-620 = tested on: SW-620
NCI-H23 = tested on: NCI-H23
SK-MEL-2 = tested on: SK-MEL-2
K562 = tested on: K562
KM12 = tested on: KM12
A498 = tested on: A498
SK-MEL-5 = tested on: SK-MEL-5
786-0 = tested on: 786-0
EKVX = tested on: EKVX
SNB-19 = tested on: SNB-19
HCT-15 = tested on: HCT-15
SF-539 = tested on: SF-539
MDA-MB-231 = tested on: MDA-MB-231
ACHN = tested on: ACHN
MCF7 = tested on: MCF7
HL-60 = tested on: HL-60
SK-OV-3 = tested on: SK-OV-3
MDA-MB-435 = tested on: MDA-MB-435
Malme-3M = tested on: Malme-3M
UACC-62 = tested on: UACC-62
OVCAR-5 = tested on: OVCAR-5
RXF 393 = tested on: RXF 393
HCC 2998 = tested on: HCC 2998
HOP-92 = tested on: HOP-92
LOX IMVI = tested on: LOX IMVI
SN12C = tested on: SN12C
SF-268 = tested on: SF-268
U-251 = tested on: U-251
RPMI-8226 = tested on: RPMI-8226
IGROV-1 = tested on: IGROV-1
DU-145 = tested on: DU-145
NCI-H226 = tested on: NCI-H226
NCI/ADR-RES = tested on: NCI/ADR-RES
UO-31 = tested on: UO-31
CCRF-CEM = tested on: CCRF-CEM
SK-MEL-28 = tested on: SK-MEL-28
HOP-62 = tested on: HOP-62
OVCAR-3 = tested on: OVCAR-3
SR = tested on: SR
OVCAR-4 = tested on: OVCAR-4

For `CCOC(=O)C1C(c2ccco2)C2(C#N)C(=N)OC1(C)C2(C#N)C#N` (stereo not given), which GI50 (TK-10) is on record?
Its GI50 is > 100 µM (inactive).

And the GI50 (SF-295)?
The GI50 was > 100 µM (inactive).

And the GI50 (HCT-116)?
The GI50 was > 100 µM (inactive).

And the GI50 (MOLT-4)?
Its GI50 is > 100 µM (inactive).

And the GI50 (HT-29)?
Its GI50 is > 100 µM (inactive).

What about the GI50 (OVCAR-8) of the same molecule?
Its GI50 is > 100 µM (inactive).

What about the GI50 (PC-3) of the same molecule?
The GI50 was > 100 µM (inactive).

What about the GI50 (A549) of the same molecule?
The GI50 was > 100 µM (inactive).

And the GI50 (UACC-257)?
Its GI50 is > 100 µM (inactive).

And the GI50 (NCI-H522)?
Its GI50 is > 100 µM (inactive).

And the GI50 (COLO 205)?
The GI50 was > 100 µM (inactive).

And the GI50 (T47D)?
Its GI50 is > 100 µM (inactive).

What about the GI50 (SNB-75) of the same molecule?
The GI50 was 57.7 µM (inactive).

What about the GI50 (CAKI-1) of the same molecule?
The GI50 was > 100 µM (inactive).

And the GI50 (Hs-578T)?
Its GI50 is > 100 µM (inactive).

And the GI50 (MDA-N)?
The GI50 was > 100 µM (inactive).

And the GI50 (M14)?
Its GI50 is > 100 µM (inactive).

What about the GI50 (SW-620) of the same molecule?
Its GI50 is > 100 µM (inactive).

And the GI50 (NCI-H23)?
Its GI50 is > 100 µM (inactive).

What about the GI50 (SK-MEL-2) of the same molecule?
Its GI50 is > 100 µM (inactive).

What about the GI50 (K562) of the same molecule?
Its GI50 is > 100 µM (inactive).

And the GI50 (KM12)?
The GI50 was > 100 µM (inactive).

What about the GI50 (A498) of the same molecule?
The GI50 was > 100 µM (inactive).

And the GI50 (SK-MEL-5)?
The GI50 was > 100 µM (inactive).

And the GI50 (786-0)?
Its GI50 is > 100 µM (inactive).

And the GI50 (EKVX)?
Its GI50 is > 100 µM (inactive).

What about the GI50 (SNB-19) of the same molecule?
Its GI50 is > 100 µM (inactive).

What about the GI50 (HCT-15) of the same molecule?
The GI50 was 33.1 µM.

And the GI50 (SF-539)?
The GI50 was > 100 µM (inactive).

And the GI50 (MDA-MB-231)?
The GI50 was > 100 µM (inactive).

What about the GI50 (ACHN) of the same molecule?
The GI50 was > 100 µM (inactive).

What about the GI50 (MCF7) of the same molecule?
The GI50 was > 100 µM (inactive).

What about the GI50 (HL-60) of the same molecule?
The GI50 was > 10 µM (inactive).

And the GI50 (SK-OV-3)?
The GI50 was > 100 µM (inactive).

What about the GI50 (MDA-MB-435) of the same molecule?
The GI50 was > 100 µM (inactive).

What about the GI50 (Malme-3M) of the same molecule?
Its GI50 is > 100 µM (inactive).

And the GI50 (UACC-62)?
The GI50 was > 100 µM (inactive).

And the GI50 (OVCAR-5)?
The GI50 was > 100 µM (inactive).

And the GI50 (RXF 393)?
The GI50 was > 100 µM (inactive).

What about the GI50 (HCC 2998) of the same molecule?
The GI50 was > 100 µM (inactive).

What about the GI50 (HOP-92) of the same molecule?
Its GI50 is > 100 µM (inactive).

And the GI50 (LOX IMVI)?
The GI50 was > 100 µM (inactive).

And the GI50 (SN12C)?
The GI50 was > 100 µM (inactive).

And the GI50 (SF-268)?
The GI50 was > 100 µM (inactive).

What about the GI50 (U-251) of the same molecule?
Its GI50 is > 100 µM (inactive).

What about the GI50 (RPMI-8226) of the same molecule?
Its GI50 is > 100 µM (inactive).

And the GI50 (IGROV-1)?
The GI50 was > 100 µM (inactive).

And the GI50 (DU-145)?
The GI50 was > 100 µM (inactive).

And the GI50 (NCI-H226)?
Its GI50 is > 100 µM (inactive).

And the GI50 (NCI/ADR-RES)?
The GI50 was > 100 µM (inactive).

And the GI50 (UO-31)?
Its GI50 is > 100 µM (inactive).

What about the GI50 (CCRF-CEM) of the same molecule?
Its GI50 is > 100 µM (inactive).

With `CC12CCC3[C@@H](CC3(C)C)C(O)(CCC1=O)C2` (stereo not given in full) as the molecule, how does the GI50 (TK-10) read?
The GI50 was > 100 µM (inactive).

And the GI50 (SF-295)?
Its GI50 is > 100 µM (inactive).

What about the GI50 (HCT-116) of the same molecule?
The GI50 was > 100 µM (inactive).

What about the GI50 (MOLT-4) of the same molecule?
The GI50 was > 100 µM (inactive).

What about the GI50 (HT-29) of the same molecule?
Its GI50 is > 100 µM (inactive).

What about the GI50 (OVCAR-8) of the same molecule?
Its GI50 is > 100 µM (inactive).

And the GI50 (PC-3)?
The GI50 was > 100 µM (inactive).

What about the GI50 (SK-MEL-28) of the same molecule?
The GI50 was > 100 µM (inactive).

What about the GI50 (A549) of the same molecule?
Its GI50 is > 100 µM (inactive).

And the GI50 (UACC-257)?
Its GI50 is > 100 µM (inactive).

And the GI50 (HOP-62)?
The GI50 was > 100 µM (inactive).

What about the GI50 (COLO 205) of the same molecule?
The GI50 was > 100 µM (inactive).

And the GI50 (T47D)?
The GI50 was > 100 µM (inactive).

What about the GI50 (SNB-75) of the same molecule?
The GI50 was > 100 µM (inactive).

What about the GI50 (CAKI-1) of the same molecule?
The GI50 was > 100 µM (inactive).

What about the GI50 (Hs-578T) of the same molecule?
The GI50 was > 100 µM (inactive).

What about the GI50 (MDA-N) of the same molecule?
The GI50 was > 100 µM (inactive).

What about the GI50 (M14) of the same molecule?
The GI50 was > 100 µM (inactive).

And the GI50 (SW-620)?
Its GI50 is > 100 µM (inactive).

What about the GI50 (NCI-H23) of the same molecule?
The GI50 was > 100 µM (inactive).

What about the GI50 (OVCAR-3) of the same molecule?
Its GI50 is > 100 µM (inactive).

And the GI50 (SK-MEL-2)?
The GI50 was > 100 µM (inactive).

What about the GI50 (K562) of the same molecule?
Its GI50 is > 100 µM (inactive).

What about the GI50 (KM12) of the same molecule?
The GI50 was > 100 µM (inactive).

And the GI50 (SK-MEL-5)?
The GI50 was > 100 µM (inactive).

What about the GI50 (786-0) of the same molecule?
Its GI50 is > 100 µM (inactive).

What about the GI50 (EKVX) of the same molecule?
Its GI50 is > 100 µM (inactive).

And the GI50 (HCT-15)?
The GI50 was over 100 µM.

And the GI50 (SF-539)?
The GI50 was > 100 µM (inactive).

What about the GI50 (MDA-MB-231) of the same molecule?
The GI50 was > 100 µM (inactive).

And the GI50 (ACHN)?
Its GI50 is > 100 µM (inactive).

What about the GI50 (MCF7) of the same molecule?
The GI50 was > 100 µM (inactive).

What about the GI50 (HL-60) of the same molecule?
Its GI50 is > 100 µM (inactive).

What about the GI50 (SK-OV-3) of the same molecule?
The GI50 was > 100 µM (inactive).

And the GI50 (MDA-MB-435)?
Its GI50 is > 100 µM (inactive).

And the GI50 (Malme-3M)?
Its GI50 is > 100 µM (inactive).

What about the GI50 (UACC-62) of the same molecule?
The GI50 was > 100 µM (inactive).

And the GI50 (OVCAR-5)?
Its GI50 is > 100 µM (inactive).

And the GI50 (HCC 2998)?
The GI50 was > 100 µM (inactive).

What about the GI50 (HOP-92) of the same molecule?
Its GI50 is > 100 µM (inactive).

What about the GI50 (LOX IMVI) of the same molecule?
The GI50 was > 100 µM (inactive).

And the GI50 (SR)?
Its GI50 is > 100 µM (inactive).

What about the GI50 (SN12C) of the same molecule?
Its GI50 is > 100 µM (inactive).

What about the GI50 (SF-268) of the same molecule?
The GI50 was > 100 µM (inactive).

What about the GI50 (U-251) of the same molecule?
Its GI50 is > 100 µM (inactive).

And the GI50 (RPMI-8226)?
Its GI50 is > 100 µM (inactive).

What about the GI50 (IGROV-1) of the same molecule?
Its GI50 is > 100 µM (inactive).

And the GI50 (DU-145)?
Its GI50 is > 100 µM (inactive).

What about the GI50 (NCI-H226) of the same molecule?
Its GI50 is > 100 µM (inactive).

What about the GI50 (OVCAR-4) of the same molecule?
The GI50 was > 100 µM (inactive).

And the GI50 (NCI/ADR-RES)?
The GI50 was > 100 µM (inactive).

And the GI50 (UO-31)?
The GI50 was > 100 µM (inactive).

And the GI50 (CCRF-CEM)?
The GI50 was > 100 µM (inactive).
